The text below walks through data of patent publication US7138389B2, “Oral androgen therapy using modulators of testosterone bioavailability” (University of Washington, priority 2004, dated 2006).

Like-named read-outs stand apart in the source and are kept apart here. Marks after values point to notes of the source that are not given here. Where a SMILES comes first, the peptide text is derived from it. [ ]: non-standard residue; d: D form. dPhe(4-NH2) = Nc1ccc(C[C@@H](N)C(=O)O)cc1; dPhe(4-Cl) = N[C@H](Cc1ccc(Cl)cc1)C(=O)O; Phe(4-NH2) = Nc1ccc(C[C@H](N)C(=O)O)cc1; d2Nal = N[C@H](Cc1ccc2ccccc2c1)C(=O)O; Lys(iPr) = CC(C)NCCCC[C@H](N)C(=O)O; d3Pal = N[C@H](Cc1cccnc1)C(=O)O A value given as a limit tells only on which side of the number the result lay.

Data set [1] deals with 5-α-reductase. Conditions: cited from earlier work.
The conditions of data set [2]: men receiving testosterone by intramuscular administration; cited from earlier work.
Data set [3] can be described thus: Serum DHT pharmacokinetics after single oral doses of testosterone or testosterone enanthate in oil with and without dutasteride (Example 2). The conditions noted are these: 200, 400, 800 mg; all men. The protocol: Study Design: Participants were randomly assigned to one of two groups: 1) oral testosterone in sesame oil, or 2) oral testosterone enanthate in sesame oil (Delatestryl, BTG Pharmaceuticals, Iselin, N.J.) at a concentration of 200 mg/ml. A sample size of seven subjects per group was estimated to have an 80% power with an α of 0.05 to detect a 50% in the change in serum testosterone area-under-the curve between doses. The oral testosterone enanthate in sesame oil was manufactured by the compounding pharmacy at the University of Washington. Briefly, micronized testosterone (U.S.P. grade, Spectrum Quality Projects, Gardena, Calif., USA) was suspended at 100 mg/ml in sesame oil (N.F. grade, Spectrum Quality Projects, Gardena, Calif., USA), and mixed thoroughly on a magnetic stir plate to create a homogenous testosterone enanthate/sesame oil emulsion. […]
Total serum testosterone was measured by a radioimmunoassay (Diagnostic Products Corporation, Los Angeles, Calif.). […] The normal range was 8.7–33 nmol/L. DHT was measured using an RIA Kit (Diagnostic Systems Laboratory, Los Angeles, Calif.). […] The normal range was 3.2–47 nmol/L. The normal ranges for testosterone, DHT and SHBG were determined in our laboratory using serum samples obtained from 100 normal men aged 20–50 years.
Statistics: Hormone were log transformed prior to analysis. […] Changes between groups were analyzed by ANOVA. […]

The nature of data set [4]: Serum testosterone pharmacokinetics after single oral doses of testosterone or testosterone enanthate in oil with and without dutasteride (Example 2). The conditions noted are these: for maximum concentration of testosterone versus normal range: normal range 8.7–33 nmol/L; for serum testosterone after oral administration in oil: 200, 400, 800 mg, all men; for Testosterone AUC (area under-the-curve): serum testosterone, mean ± SD. As to the method:
Study Design: Participants were randomly assigned to one of two groups: 1) oral testosterone in sesame oil, or 2) oral testosterone enanthate in sesame oil (Delatestryl, BTG Pharmaceuticals, Iselin, N.J.) at a concentration of 200 mg/ml. A sample size of seven subjects per group was estimated to have an 80% power with an α of 0.05 to detect a 50% in the change in serum testosterone area-under-the curve between doses. The oral testosterone enanthate in sesame oil was manufactured by the compounding pharmacy at the University of Washington. Briefly, micronized testosterone (U.S.P. grade, Spectrum Quality Projects, Gardena, Calif., USA) was suspended at 100 mg/ml in sesame oil (N.F. grade, Spectrum Quality Projects, Gardena, Calif., USA), and mixed thoroughly on a magnetic stir plate to create a homogenous testosterone enanthate/sesame oil emulsion. The compounding pharmacist then drew up the emulsion into syringes at the desired dose levels (200, 400 and 800 mg). The dose of oral testosterone enanthate in sesame oil was normalized for the testosterone content, so that the subjects in the testosterone enanthate group (molecular weight 397) were administered 276, 554 and 1108 mg of testosterone enanthate, corresponding to 200, 400 and 800 mg of testosterone.
(§1) The drug exposure period lasted 12 days (FIG. 6). […] One, two and three days after acyline administration, as per the protocol of FIG. 6, subjects drank 200, 400 or 800 mg of testosterone or testosterone enthanate in oil, mixed with 8 oz of whole milk. These doses were repeated days eight, nine and ten days after the acyline injection. […] For safety, subjects underwent daily testing of liver function (AST, bilirubin, alkaline phosphatase), kidney function (BUN, creatinine) and hematopoiesis (hemoglobin and hematocrit).
(§2) Total serum testosterone was measured by a radioimmunoassay (Diagnostic Products Corporation, Los Angeles, Calif.). […] The normal range was 8.7–33 nmol/L. DHT was measured using an RIA Kit (Diagnostic Systems Laboratory, Los Angeles, Calif.). The sensitivity of this assay was 0.043 nmol/L and the intra-assay variation for mid and low-range pools was 9.9% and 11%, with interassay coefficients of variations of 19 and 25%. […] The normal range was 3.2–47 nmol/L. The normal ranges for testosterone, DHT and SHBG were determined in our laboratory using serum samples obtained from 100 normal men aged 20–50 years.
Statistics: Hormone were log transformed prior to analysis. […] Changes between groups were analyzed by ANOVA. Statistical analyses were performed using STATA ([…], Tex., USA). Type I error was set at 0.05 for all analyses.

The conditions of data set [5]: cited from earlier work.
Data set [6] concerns endogenous testosterone production. Conditions: cited from earlier work.
Data set [7] shares this test system. Description: Suppression of endogenous testosterone production by GnRH antagonist acyline. The data set is classed as in vivo, human. As to the method:
as §1, §2

On the set-up of data set [8]: species or system human. Conditions: in vivo. The source says:
The drug exposure period lasted 12 days (FIG. 6).

The conditions of data set [9]: in vivo; cited from earlier work.
For data set [10], the system named is serum proteins (SHBG, albumin). Conditions: cited from earlier work.

`CC(C)(C)NC(=O)[C@H]1CC[C@H]2[C@@H]3CC[C@H]4NC(=O)C=C[C@]4(C)[C@H]3CC[C@]12C` [finasteride, (5α,17beta)-N-(1,1-dimethylethyl)-3-oxo-4-azaandrost-1-ene-17-carboxamide]: in data set [1] (administration of finasteride), the “reduction of prostate DHT levels” value is reported as 90% and the “reduction of serum DHT levels” value is on record as 70%. Besides, the “increase of testosterone levels” value in [1] (men given finasteride (Gormley et al.)) is given as “about 10%”. Besides, the “levels of serum testosterone” value in data set [2] is “without substantial effect”.

Turning to `CCCCCCC(=O)O[C@H]1CC[C@H]2[C@@H]3CCC4=CC(=O)CC[C@]4(C)[C@H]3CC[C@]12C` [Testosterone Enanthate-only, testosterone enanthate], in data set [3], the “serum DHT after oral administration in oil” value is on record as “significantly increased the serum DHT in all men in a dose-dependent fashion”. The “maximum concentration of testosterone versus normal range” value in [4] (400 mg oral dose in oil) and in data set [4] (800 mg oral dose in oil) was “exceeding the normal range” each time. Besides, the “serum testosterone after oral administration in oil” value in [4] is “significantly increased in all men in a dose-dependent fashion”.

As for `CCCCCCCCCCC(=O)O[C@H]1CC[C@H]2[C@@H]3CCC4=CC(=O)CC[C@]4(C)[C@H]3CC[C@]12C` [Testosterone undecanoate], in [5] (oral (Bagchus et al.)), the “effect of food intake on absorption” value is given as “dramatically improved”. In [5] (oral), the “serum DHT on oral TU therapy” value is “well above the normal range” and the “serum testosterone on oral TU therapy” value is recorded as “therapeutic increases”.

With `CC(=O)Nc1ccc(C[C@H](NC(=O)[C@H](CO)NC(=O)[C@@H](Cc2cccnc2)NC(=O)[C@@H](Cc2ccc(Cl)cc2)NC(=O)[C@@H](Cc2ccc3ccccc3c2)NC(C)=O)C(=O)N[C@H](Cc2ccc(NC(C)=O)cc2)C(=O)N[C@@H](CC(C)C)C(=O)N[C@@H](CCCCNC(C)C)C(=O)N2CCC[C@H]2C(=O)N[C@H](C)C(N)=O)cc1` [acyline] (Ac-[d2Nal][dPhe(4-Cl)][d3Pal]S[Phe(4-NH2)](Ac)[dPhe(4-NH2)](Ac)L[Lys(iPr)]P[dA]-NH2), the “duration of suppression of endogenous testosterone production in men” value in [6] (previously shown (Herbst et al.)) was 2 weeks. Also, the “duration of suppression of testosterone production in normal men” value in data set [6] (single injection 300 mcg/kg SQ) is recorded as ≥ 15 days. Further, in data set [7] (all subjects, Day 0 DHT 1.6±0.6, P<0.05), the “serum DHT 24 hours after acyline administration (day 1)” value is 0.6 ± 0.2 nmol/L. For the same molecule, the “serum testosterone 24 hours after acyline administration (day one)” value in data set [7] (all subjects, acyline 300 mcg/kg SQ, day zero 20.0±7.4, P<0.0001) came to 2.3 ± 0.5 nmol/L. In addition, in data set [7] (testosterone enanthate group), the “serum DHT 24-hours post acyline” value turned out to be 0.6 ± 0.2 nmol/L and the “serum testosterone 24-hours post acyline” value was found to be 2.3 ± 0.8 nmol/L. Moreover, in [7] (testosterone group), the “serum DHT 24-hours post acyline” value was 0.5 ± 0.2 nmol/L and the “serum testosterone 24-hours post acyline” value came to 2.3 ± 0.7 nmol/L. Further, the injection-site reaction result in data set [8] is reported as “transient pruritis”.

`C[C@]12CC[C@H]3[C@@H](CCC4=CC(=O)CC[C@@]43C)[C@@H]1CC[C@@H]2O` [Testosterone-only, testosterone]: the “effect on serum testosterone levels” value in data set [5] (200 mg doses of oral testosterone, for up to eight hours) was “elevate serum testosterone levels to the low normal range”; in data set [5] (oral unmodified testosterone at doses up to 100 mg, deficient men) it was “little effect”. The “half-life of testosterone, reported values” in [9] was 10 to 100 min. Also, the “serum DHT after oral administration in oil” value in [3] is “significantly increased the serum DHT in all men in a dose-dependent fashion”. Besides, the “maximum concentration of testosterone versus normal range” value in [4] (800 mg oral dose in oil) was “exceeding the normal range”. The “serum testosterone after oral administration in oil” value in [4] is recorded as “significantly increased in all men in a dose-dependent fashion”. The “Testosterone AUC (area under-the-curve)” value in data set [4] (single oral dose 200 mg in oil) is 124 ± 28 nmol·h/L; in data set [4] (single oral dose 200 mg in oil, listed as testosterone-alone), 124 ± 28 nmol·h/L; in data set [4] (single oral dose 400 mg in oil), 208 ± 74^a nmol-hours/L; in data set [4] (single oral dose 400 mg in oil, listed as testosterone-alone) it was 208 ± 74 nmol·h/L; in data set [4] (single oral dose 800 mg in oil), 328 ± 72^a nmol-hours/L; in data set [4] (single oral dose 800 mg in oil, listed as testosterone-alone) it was 328 ± 82 nmol·h/L. For the same molecule, the “blood testosterone bound to serum proteins” value in data set [10] is given as “About 98%”. Besides, the “circulating plasma testosterone bound to sex hormone-binding globulin (SHBG)” value in [10] was “Approximately 40%”. The “circulating plasma testosterone unbound (free)” value in data set [10] (plasma) is on record as 2%.
